Assays:
[1] = test system: HCC827 cells (PD-L1 positive); experiment: Cellular uptake and internalization, HCC827; format: cell-based, human; details: HCC827, 1 × 10^6 cells/tube, 7.4 kBq, 37 °C, 1 h, n = 3
Description: Human colorectal cancer HCT116 (PD-L1 positive: 45.1 nTPM), human lung cancer HCC827 (PD-L1 positive: 27.1 nTPM), and […] C6 glioma cells (PD-L1 negative control) were obtained from ATCC (Atlanta, GA, USA). FBS, RPMI, and cell culture medium were obtained from Bovine and Biology (CDMX, MX). Cells were cultured in RPMI medium (5% CO2; 100 µg/mL penicillin, 15% fetal bovine serum, and 100 µg/mL streptomycin; 37 °C).
Cells diluted in phosphate-buffered saline (PBS) (pH 7.4) (1 × 10^6 cells/tube) received three different treatments: (a) [^99mTc]Tc-iPD-L1 (7.4 kBq) (n = 3), (b) and [^99mTc]Tc-WL12 (7.4 kBq) (n = 3), and (c) ^99mTcO4Na (7.4 kBq) (n = 3). Cells were incubated with each treatment at 37 °C for one hour. After incubation, tubes were measured in a NaI(Tl) detector (NML Inc., Houston, TX, USA) to establish the initial or first activity (100%). The tubes were spun at 500 g for 10 min, rinsed once with PBS, and spun once more. The liquid was removed, and the activity in the button was determined, indicating the percentage of cellular uptake (surface uptake) regarding the initial or first activity. Acetic acid/0.5 M NaCl was added, the tubes were centrifuged, and the activity was measured. The liquid was removed, and activity in button activity represented the percentage of activity internalized by cells relative to uptake activity (internalization fraction of surface uptake). […]

[2] = target: T1, human integrin αVβ3 protein (Homo sapiens, UniProt P05106+P06756); experiment: Radio-SDS-PAGE with integrin (negative control protein); format: binding; details: radiopeptide incubated with integrin αVβ3 (200 µg/mL) 30 min at 37 °C, radio-TLC scan
T1 construct: purchased Chemicom, Merck
T1 sequence (P06756 31-889 limits assumed): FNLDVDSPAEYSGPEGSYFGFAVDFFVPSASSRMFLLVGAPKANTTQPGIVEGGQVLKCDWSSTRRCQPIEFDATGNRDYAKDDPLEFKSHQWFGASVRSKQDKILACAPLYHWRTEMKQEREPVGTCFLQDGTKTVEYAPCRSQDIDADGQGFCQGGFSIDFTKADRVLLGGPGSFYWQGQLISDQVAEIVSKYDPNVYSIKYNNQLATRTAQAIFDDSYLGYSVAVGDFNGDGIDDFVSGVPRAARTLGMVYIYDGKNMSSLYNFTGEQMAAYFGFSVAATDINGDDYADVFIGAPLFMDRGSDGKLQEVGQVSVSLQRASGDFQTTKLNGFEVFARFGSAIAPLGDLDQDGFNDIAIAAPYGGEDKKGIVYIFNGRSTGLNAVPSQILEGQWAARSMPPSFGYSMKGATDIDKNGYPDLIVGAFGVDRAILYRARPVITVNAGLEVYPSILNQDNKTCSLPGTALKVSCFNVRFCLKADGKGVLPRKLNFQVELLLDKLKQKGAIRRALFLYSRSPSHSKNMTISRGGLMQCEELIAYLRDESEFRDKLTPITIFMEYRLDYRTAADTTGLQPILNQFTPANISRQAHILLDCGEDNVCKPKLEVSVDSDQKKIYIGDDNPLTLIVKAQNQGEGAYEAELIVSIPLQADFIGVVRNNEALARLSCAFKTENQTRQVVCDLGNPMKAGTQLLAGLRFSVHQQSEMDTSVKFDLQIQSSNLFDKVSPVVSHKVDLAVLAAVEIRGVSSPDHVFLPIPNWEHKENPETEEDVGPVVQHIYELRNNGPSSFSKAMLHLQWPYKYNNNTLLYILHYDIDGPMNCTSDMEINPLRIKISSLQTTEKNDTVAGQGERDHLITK
T1 sequence (P06756 891-1048 limits assumed): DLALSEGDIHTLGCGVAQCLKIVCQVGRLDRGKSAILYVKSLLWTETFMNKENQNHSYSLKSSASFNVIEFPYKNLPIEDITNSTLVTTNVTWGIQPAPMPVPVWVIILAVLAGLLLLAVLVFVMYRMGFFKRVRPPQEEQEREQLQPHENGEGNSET
T1 sequence (P05106 27-788): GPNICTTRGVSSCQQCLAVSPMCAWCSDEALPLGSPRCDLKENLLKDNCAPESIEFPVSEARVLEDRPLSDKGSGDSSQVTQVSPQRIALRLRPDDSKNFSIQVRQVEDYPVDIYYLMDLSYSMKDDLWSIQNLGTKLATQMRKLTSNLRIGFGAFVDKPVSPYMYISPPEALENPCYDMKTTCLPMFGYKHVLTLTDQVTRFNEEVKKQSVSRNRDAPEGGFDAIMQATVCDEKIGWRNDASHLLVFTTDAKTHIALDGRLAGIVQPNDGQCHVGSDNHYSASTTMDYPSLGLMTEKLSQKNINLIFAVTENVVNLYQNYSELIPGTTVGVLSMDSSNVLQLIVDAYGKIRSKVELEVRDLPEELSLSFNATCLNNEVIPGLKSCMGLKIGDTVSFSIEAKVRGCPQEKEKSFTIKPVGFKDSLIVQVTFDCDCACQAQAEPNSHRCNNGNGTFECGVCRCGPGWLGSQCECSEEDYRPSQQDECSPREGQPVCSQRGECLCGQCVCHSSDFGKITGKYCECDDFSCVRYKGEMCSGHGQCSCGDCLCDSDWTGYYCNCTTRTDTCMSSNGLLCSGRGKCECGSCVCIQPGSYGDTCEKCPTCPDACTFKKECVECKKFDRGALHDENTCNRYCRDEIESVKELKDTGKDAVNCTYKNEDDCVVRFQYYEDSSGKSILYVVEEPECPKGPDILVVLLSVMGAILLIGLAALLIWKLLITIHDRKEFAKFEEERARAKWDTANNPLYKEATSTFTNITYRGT
Description: (§1) SDS-PAGE gel electrophoresis was performed. Radioactivity distribution was determined using a radio-TLC scanner (Mini-Gita, 60–150 keV, BGO-Crystal, window 25 × 2 mm, thickness 5 mm, resolution optimized for Tc-99m; RayTest, Munich, Germany) to detect [^99mTc]Tc-iPD-L1 and [^99mTc]Tc-WL12 binding to PD-L1 protein.
(§2) Briefly, ^99mTc-labeled WL12 and iPD-L1 solutions (100 µL) (1 mg/mL peptide) were incubated with human recombinant PD-L1 protein (100 µL) (200 µg/mL; FineTest; Cat: P6857) (radiopeptide-PD-L1 interaction) or human integrin αVβ3 protein (100 µL) (negative control; 200 µg/mL) (Chemicom, Merck; Burlington, MA, USA) (radiopeptide-integrin interaction) for 30 min at 37 °C, after which the samples were diluted with Laemmli sample buffer (containing 10% SDS, Tris-Cl 125 mM, pH = 6.8, 12.5% glycerol and 0.005% bromophenol blue after dye) to give final protein concentrations of 25 µg/mL. […] Finally, the radioactivity distribution on the gels was scanned using a radio-TLC detector to determine the percentage of [^99mTc]Tc-iPD-L1 or [^99mTc]Tc-WL12 radioactivity associated with proteins.
(§3) In vitro-specific recognition of [^99mTc]Tc-iPD-L1 and [^99mTc]Tc-WL12 by the PD-L1 protein was performed using a combination of radio-TLC and SDS-PAGE (radio-SDS-PAGE). […] Therefore, the radioactivity associated with free peptides is in the front of the gel plate (around 60–70 mm). […]

[3] = target: T2, human recombinant PD-L1 protein (Homo sapiens, UniProt Q9NZQ7); experiment: Radio-SDS-PAGE molecular recognition by PD-L1 protein; format: binding; details: radiopeptide (1 mg/mL) incubated with PD-L1 (200 µg/mL) 30 min at 37 °C; 15% SDS-PAGE, radio-TLC scan
T2 construct: purchased FineTest P6857
T2 sequence (Q9NZQ7 19-290): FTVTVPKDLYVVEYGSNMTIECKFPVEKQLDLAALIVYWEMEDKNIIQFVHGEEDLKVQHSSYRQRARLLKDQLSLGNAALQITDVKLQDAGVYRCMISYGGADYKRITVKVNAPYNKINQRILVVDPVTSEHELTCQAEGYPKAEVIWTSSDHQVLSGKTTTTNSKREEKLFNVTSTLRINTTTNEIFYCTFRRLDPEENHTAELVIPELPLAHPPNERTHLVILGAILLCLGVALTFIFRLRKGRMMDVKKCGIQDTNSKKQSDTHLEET
Description: as §1, §2, §3

Serum protein binding = format: in vitro ADME; details: human serum (diluted 5x), 37 °C, size-exclusion radio-HPLC, n = 3
Description: The stability of [^99mTc]Tc-iPD-L1 and [^99mTc]Tc-WL12 was evaluated by diluting the samples in human serum (5x). The radiopharmaceuticals (n = 3) were heated at 37 °C and analyzed at 0.5, 3, and 24 h for radiochemical purity by size-exclusion radio-HPLC (ProteinPak 300SW, Waters Corporation, Milford, CT, USA).
The radioactivity from [^99mTc]Tc-iPD-L1 bound to serum proteins was 1.3 ± 0.8% at 30 min, 3.2 ± 1.3% at 3 h, and 7.6 ± 1.9% at 24 h. High radiochemical stability (>90% at 24 h) was also observed. In the case of [^99mTc]Tc-WL12, protein binding was 1.0 ± 0.4% at 30 min, 3.3 ± 0.9% at 3 h, and 6.0 ± 1.3% at 24 h, with a radiochemical purity of >90% at 24 h. Therefore, there was no significant difference […] in protein binding and serum stability between the radiotracers.

CCCC[C@H]1C(=O)N(C)[C@@H](CCCC)C(=O)N[C@@H](CCCNC(=O)c2ccc(NN)nc2)C(=O)N[C@H](C(=O)NCC(N)=O)CSCC(=O)N[C@@H](Cc2ccc(O)cc2)C(=O)N(C)[C@@H](C)C(=O)N[C@@H](CC(N)=O)C(=O)N2CCC[C@H]2C(=O)N[C@@H](Cc2c[nH]cn2)C(=O)N[C@@H](CC(C)C)C(=O)N2C[C@H](O)C[C@H]2C(=O)N[C@@H](Cc2c[nH]c3ccccc23)C(=O)N[C@@H](CO)C(=O)N[C@@H](Cc2cn(C)c3ccccc23)C(=O)N1C [[^99mTc]Tc-WL12, metal not drawn]
uptake and internalization compared to C6 cells (PD-L1 negative) [1]: significantly higher
shift in radioactivity with integrin (negative control) [2]: no shift in radioactivity
radioactivity detected at the distance associated with the PD-L1 protein [3]: 14%
radioactivity bound to serum proteins at 30 min (Serum protein binding; 30 min): 1.0 ± 0.4%
radioactivity bound to serum proteins at 3 h (Serum protein binding; 3 h): 3.3 ± 0.9%
radioactivity bound to serum proteins at 24 h (Serum protein binding; 24 h): 6.0 ± 1.3%
